The values below come from ChEMBL document CHEMBL1629585, “Nationwide survey of CTX-M-type extended-spectrum beta-lactamases among Klebsiella pneumoniae isolates in Slovenian hospitals” (2009).

In brackets after ≈: the same amount, converted by molar mass.

The test system of experiment [1] is Klebsiella pneumoniae. As to the kind of experiment: Antibacterial activity against Klebsiella pneumoniae D expressing CTX-M group 1 beta-lactamase by Etest method. The experiment is classed as functional.
For experiment [2], the system named is Klebsiella pneumoniae. Kind of experiment: Antibacterial activity against Klebsiella pneumoniae B expressing CTX-M group 1 beta-lactamase by Etest method. The experiment is classed as functional.
For experiment [3], the system named is Klebsiella pneumoniae. Kind of experiment: Antibacterial activity against Klebsiella pneumoniae C expressing CTX-M group 1 beta-lactamase by Etest method. The experiment is classed as functional.
Experiment [4] relates to Klebsiella pneumoniae. Kind of experiment: Antibacterial activity against Klebsiella pneumoniae expressing CTX-M group 1 beta-lactamase by Etest method. The experiment is classed as functional.
Experiment [5] has as its system Escherichia coli. Kind of experiment: Antibacterial activity against Escherichia coli TrC C expressing Klebsiella pneumoniae C blaCTX-M beta-lactamase by Etest method. It counts as functional.
The subject of experiment [6] is Escherichia coli. Kind of experiment: Antibacterial activity against Escherichia coli TrC B expressing Klebsiella pneumoniae B blaCTX-M beta-lactamase by Etest method. The experiment is classed as functional.
For experiment [7], the system named is Escherichia coli. Kind of experiment: Antibacterial activity against Escherichia coli TrC A expressing Klebsiella pneumoniae A blaCTX-M beta-lactamase by Etest method. It counts as functional.
For experiment [8], the system named is Klebsiella pneumoniae. As to the kind of experiment: Antibacterial activity against Klebsiella pneumoniae A expressing CTX-M group 1 beta-lactamase by Etest method. The experiment is classed as functional.
Experiment [9] has as its system Escherichia coli. Kind of experiment: Antibacterial activity against rifampicin resistant Escherichia coli J53-2 by Etest method.

The MIC is the least concentration at which growth counts as inhibited. One may read the MIC90 as the lowest concentration that inhibits either 90% of growth or 90% of the strains tested, depending on the study. By MIC50 is commonly meant the lowest concentration that inhibits either 50% of growth or 50% of the strains tested, depending on the study. A lower MIC50 goes with greater potency.

For the compound `CO/N=C(\C(=O)N[C@@H]1C(=O)N2C(C(=O)[O-])=C(C[N+]3(C)CCCC3)CS[C@H]12)c1csc(N)n1`, in [1], the MIC came to 32 µg/mL (≈ 66.6 µM) and the MIC90 is > 256 µg/mL. Further, in experiment [2], the MIC is 16 µg/mL (≈ 33.3 µM), the MIC50 amounted to 16 µg/mL (≈ 33.3 µM) and the MIC90 turned out to be 48 µg/mL (≈ 99.9 µM).

Turning to GENTAMICIN, the figures for the MIC50 in [3] and in [4] were 128 µg/mL and 64 µg/mL, respectively. Further, the MIC90 in [3] and in experiment [4] was > 256 µg/mL throughout. For the same compound, the MIC worked out at 16 µg/mL in [5], 32 µg/mL in experiment [6] and 4 µg/mL in experiment [7].

Regarding `NC[C@H]1O[C@H](O[C@H]2[C@H](O)[C@@H](O[C@H]3O[C@H](CO)[C@@H](O)[C@H](N)[C@H]3O)[C@H](N)C[C@@H]2N)[C@H](N)C[C@@H]1O` [TOBRAMYCIN], the MIC in experiment [3] was found to be 32 µg/mL (≈ 68.4 µM); in experiment [5], 16 µg/mL (≈ 34.2 µM); in experiment [8] it was 32 µg/mL (≈ 68.4 µM); in [9], 1 µg/mL (≈ 2.14 µM); in experiment [6] it was 32 µg/mL (≈ 68.4 µM); in experiment [7], 32 µg/mL (≈ 68.4 µM). The compound also displayed an MIC in experiment [2] of 32 µg/mL (≈ 68.4 µM).

Turning to `CO[C@@]1(NC(=O)Cc2cccs2)C(=O)N2C(C(=O)O)=C(COC(N)=O)CS[C@@H]21` [CEFOXITIN], the MIC was 8 µg/mL (≈ 18.7 µM) in experiment [3]; 3 µg/mL (≈ 7.02 µM) in experiment [1]; 1.5 µg/mL (≈ 3.51 µM) in experiment [4]; 8 µg/mL (≈ 18.7 µM) in experiment [5]; 3 µg/mL (≈ 7.02 µM) in experiment [8]; 8 µg/mL (≈ 18.7 µM) in experiment [9]. Moreover, the MIC in experiment [6] was found to be 8 µg/mL (≈ 18.7 µM); in experiment [7], 16 µg/mL (≈ 37.4 µM); in experiment [2], 8 µg/mL (≈ 18.7 µM). For the same compound, the MIC50 in [3] was found to be 12 µg/mL (≈ 28.1 µM); in [1] it was 4 µg/mL (≈ 9.36 µM); in [4], 3 µg/mL (≈ 7.02 µM); in [8], 4 µg/mL (≈ 9.36 µM); in experiment [2] it was 8 µg/mL (≈ 18.7 µM). The MIC90 in [3] turned out to be 48 µg/mL (≈ 112 µM); in experiment [1] it was 16 µg/mL (≈ 37.4 µM); in experiment [4] it was 48 µg/mL (≈ 112 µM); in experiment [8] it was 24 µg/mL (≈ 56.1 µM); in experiment [2] it was 16 µg/mL (≈ 37.4 µM).

In the case of `CC1(C)S[C@@H]2[C@H](NC(=O)[C@H](N)c3ccc(O)cc3)C(=O)N2[C@H]1C(=O)O` [AMOXICILLIN], the MIC in experiment [3] was determined as 6 µg/mL (≈ 16.4 µM); in [1], 6 µg/mL (≈ 16.4 µM); in [4] it was 8 µg/mL (≈ 21.9 µM); in experiment [8], 4 µg/mL (≈ 10.9 µM); in experiment [2], 12 µg/mL (≈ 32.8 µM). For the same compound, the MIC50 was 16 µg/mL (≈ 43.8 µM) in experiment [3]; 16 µg/mL (≈ 43.8 µM) in [1]; 16 µg/mL (≈ 43.8 µM) in [4]; 8 µg/mL (≈ 21.9 µM) in experiment [8]; 16 µg/mL (≈ 43.8 µM) in experiment [2]. In addition, the MIC90 in experiment [3] is 64 µg/mL (≈ 175 µM); in experiment [1] it was 16 µg/mL (≈ 43.8 µM); in [4], > 256 µg/mL; in experiment [8] it was 8 µg/mL (≈ 21.9 µM); in [2], 16 µg/mL (≈ 43.8 µM).

For the compound `C[C@@H](O)[C@H]1C(=O)N2C(C(=O)O)=C(SCCNC=N)C[C@H]12` [IMIPENEM ANHYDROUS], the MIC came to 0.19 µg/mL (≈ 0.635 µM) in experiment [3]; 0.19 µg/mL (≈ 0.635 µM) in [1]; 0.19 µg/mL (≈ 0.635 µM) in [4]; 0.19 µg/mL (≈ 0.635 µM) in experiment [8]; 0.125 µg/mL (≈ 0.418 µM) in [2]. For the same compound, the MIC50 in [3] was determined as 0.19 µg/mL (≈ 0.635 µM); in experiment [1], 0.25 µg/mL (≈ 0.835 µM); in [4] it was 0.25 µg/mL (≈ 0.835 µM); in [8] it was 0.25 µg/mL (≈ 0.835 µM); in experiment [2] it was 0.19 µg/mL (≈ 0.635 µM). Further, the MIC90 in [3] amounted to 0.38 µg/mL (≈ 1.27 µM); in [1] it was 0.25 µg/mL (≈ 0.835 µM); in experiment [4], 0.5 µg/mL (≈ 1.67 µM); in [8] it was 0.38 µg/mL (≈ 1.27 µM); in [2], 0.19 µg/mL (≈ 0.635 µM).
